In US11406707B2, “STAT3 phosphorylation during graft-versus-host disease” (H. LEE MOFFITT CANCER CENTER AND RESEARCH INSTITUTE, INC., priority 2014, dated 2022):

Legend:
[1] = literature; cited from earlier work
primed T-cells = assay: Secondary alloMLR (3-day restimulation of primed T-cells) proliferation; assay type: cell-based, human; conditions: Homo sapiens, T-cell; rapamycin 10 ng/ml; read-out: inhibition of proliferation in comparison to DMSO
Source text: Bulk donor T-cells were allostimulated with cytokine-matured, allogeneic moDCs at a DC:T-cell ratio of 1:30 as previously described (Florida Blood Services) [Betts, B C, et al. (2011) Blood 118:5330-9; Betts, B C, et al. […] Betts, B C, et al. (2011) Blood 118:5340-3]. […] Lower doses of each drug were used in these experiments to mimic expected physiologic concentrations [Siddiquee, K, et al. (2007) Proceedings of the National Academy of Sciences of the United States of America 104:7391-6; Zeiser, R, et al. (2008) Blood 111:453-62], and to better detect potential synergistic activity with the combination of rapamycin and S3I-201. After 5 days of culture at […]-cell proliferation was measured by a colorimetric assay per the manufacturer's instructions (CellTiter 96 Aqueous One Solution Cell Proliferation Assay [MTS]; Promega, Madison, Wis. USA) [Betts, B C, et al. (2011) Blood 118:5330-9; Betts, B C, et al. […] Betts, B C, et al. (2011) Blood 118:5340-3]. Absorbance/optical density (OD) was analyzed at 490 nm. Secondary alloMLR: […] Following priming, the T-cells were then rested and re-cultured with fresh first-party moDCs (DC:T-cell ratio of 1:30). […] After 3 days, T-cell proliferation was measured by a colorimetric assay as described (Promega). T-cells alone and PHA-stimulated T-cells served as negative and positive controls, respectively, for both the primary and secondary alloMLRs.

TH17 responses = conditions: neutralization of IL-6, literature; cited from earlier work
[2] = test system: DC-allosensitized T-cell proliferation; assay: allo-MLR T-cell proliferation (colorimetric MTS assay, stimulation index); assay type: cell-based, human; conditions: CAS 285986-31-4 titration 0-100 μM, day 4
Method: Allo-MLRs consisted of T cells stimulated by cytokine-mature moDCs (DC:T-cell ratio 1:30, 1×10^5 T cells per 100 μl medium in a 96-well plate, 37° C.). […] The allogeneic moDC stimulators were matured with a cytokine cocktail and terminally differentiated, eliminating the need for irradiation [Betts, B. C., et al. (2011) Blood 118, 5330-5339]. T-cell proliferation was quantified by a colorimetric assay (CellTiter 96 AQueous One Solution Cell Proliferation Assay [MTS]; Promega, Madison, Wis.) on day 5, per the manufacturer's instructions, with absorbance quantified at 490 nm [Betts, B. C., et al. (2011) Blood 118, 5330-5339]. The stimulation index was calculated by dividing the OD of the allo-MLR by the OD of T cells alone. PHA-stimulated T cells served as a positive control. Identical allo-MLRs were cultured with CAS 285986-31-4, to determine the dose-response effect of STAT5 inhibition on allostimulated T-cell growth. For these initial experiments, the cultures were analyzed on day 4 because of the early rapid T-cell proliferation among the STAT5 inhibitor-treated wells. The stimulation index was determined as described.

STAT3 = target: T1, STAT3 (Homo sapiens, UniProt P40763); assay: STAT3 phosphorylation in CD4+ T cells of 5 day allo-MLRs without exogenous cytokine; assay type: cell-based; conditions: CAS 285986-31-4 1 μM, 5 day allo-MLR
T1 construct: endogenous in cells; host or cells: primary human T cells from healthy-donor PBMC, allostimulated by monocyte-derived dendritic cells
T1 sequence (P40763 whole entry): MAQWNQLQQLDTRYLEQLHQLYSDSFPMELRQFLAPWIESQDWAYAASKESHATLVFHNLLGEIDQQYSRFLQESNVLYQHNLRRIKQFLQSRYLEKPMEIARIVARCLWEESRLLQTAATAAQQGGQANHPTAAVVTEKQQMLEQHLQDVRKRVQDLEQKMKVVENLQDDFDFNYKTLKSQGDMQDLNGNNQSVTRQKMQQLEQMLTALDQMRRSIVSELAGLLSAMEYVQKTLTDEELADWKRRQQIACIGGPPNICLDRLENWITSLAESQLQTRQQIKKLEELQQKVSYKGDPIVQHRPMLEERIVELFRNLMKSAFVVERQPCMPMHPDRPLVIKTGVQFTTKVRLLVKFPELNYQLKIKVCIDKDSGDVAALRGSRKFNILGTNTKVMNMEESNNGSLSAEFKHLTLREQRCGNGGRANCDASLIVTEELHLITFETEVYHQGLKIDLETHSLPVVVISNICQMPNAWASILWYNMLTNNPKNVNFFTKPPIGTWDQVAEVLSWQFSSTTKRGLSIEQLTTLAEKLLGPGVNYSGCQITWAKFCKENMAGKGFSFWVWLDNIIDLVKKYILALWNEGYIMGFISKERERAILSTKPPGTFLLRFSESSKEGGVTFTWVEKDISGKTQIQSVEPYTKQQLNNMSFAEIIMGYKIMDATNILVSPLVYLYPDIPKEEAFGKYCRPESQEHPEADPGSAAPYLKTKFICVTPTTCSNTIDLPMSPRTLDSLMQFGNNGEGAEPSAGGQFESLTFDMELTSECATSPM
Method: (§1) No exogenous cytokine was added. DC-allosensitized T cells were harvested on day 5. […] The ratio of CD4^+, pSTAT5^Bright to CD4^+, pSTAT3^+ T cells was calculated by percentage of phosphorylation.

Foxp3 TSDR = assay: iTreg Foxp3 demethylation assay; assay type: cell-based, human; conditions: CAS 285986-31-4 1 μM
Source text: iTreg Foxp3 demethylation assay. […] (2013) J. Immunol. 190, 3180-3188; Miyao, T., et al. (2012) Immunity 36, 262-275]. The degree of Foxp3 TSDR demethylation among iTregs from DMSO-treated allo-MLRs, purified nTregs, and Tconvs served as the controls [[…]., et al. (2013) Blood 122(13):2251-61]. For these experiments, iTregs and nTregs were sorted to select the CD4^+ CD25^+ CD127^- population. PCR products were amplified by using methylation or demethylation specific TSDR forward and reverse primers from bisulphate-treated genomic DNA of sorted natural Tregs. DNA fragments were cloned into a pCR2.1-Topo vector (Life Technologies, Grand Island, N.Y., USA) and verified by DNA sequencing. The following TSDR primers and probes were used for PCR: methylation forward [NT] ID NO:1), reverse [NT] ID NO:2), and hydrolysis probe [NT] (SEQ ID NO:3); and demethylation forward [NT] ID NO:4), reverse [NT] ID NO:5), and hydrolysis probe [NT] ID NO:6). Standards were diluted at concentrations ranging from 2^7 to 2^3 plasmid copies of each methylation or demethylation TSDR. Genomic DNA was isolated by using the DNeasy Blood and Tissue kit (Qiagen, Valencia, Calif., USA) from sorted natural or expanded iTregs. Genomic DNA (200-500 ng) was treated with bisulfite from the EZ DNA Methylation-Gold Kit (Zymo Research, Irvine, Calif., USA). […]

T cells = assay: T-cell viability by Live/Dead staining in treated allo-MLRs; assay type: cell-based, human; conditions: CAS 285986-31-4 1 μM
Method: Fluorochrome-conjugated mouse anti-human mAbs included anti-CD3, -CD4, -CD8, -CD25, -CD45RO, -CD107a, -CD127, -Foxp3, -pSTAT3/pY705, -pSTAT5/pY694, -IFN-, and -IL-17A (BD Biosciences, San Jose, Calif. USA; eBioscience; San Diego, Calif., USA; Invitrogen; Carlsbad, Calif., USA). Viability was assessed by Live/Dead staining (Invitrogen). Live events were acquired on FACSCalibur or LSRII (BD Biosciences) flow cytometers (FlowJo software, ver. 7.6.4; TreeStar, Ashland, Oreg., USA). Gates were defined by appropriate isotype controls. Naive T-cell sorting was performed on the FACSVantageDiVa (BD Biosciences). Where indicated, CD4^+ T cells were purified by magnetic-bead negative selection (Miltenyi Biotec, Auburn, Calif., USA).

iTregs and Tconvs = assay: iTreg and Tconv expansion from DC-allostimulated naive CD4+ T cells; assay type: cell-based, human; conditions: CAS 285986-31-4 1 μM
Method: To evaluate iTreg development, naive CD4^+ cells were isolated from nylon-wool-eluted T cells by magnetic-bead selection (Miltenyi Biotec), based on the positive expression of CD4 and lack of CD45RO, CD25, or both. In addition, CD127 staining of the naive CD4^+ cells was performed after the purification, to ensure depletion of natural Tregs from the cell product. Negligible amounts of CD127^-, CD25^Bright nTregs were observed after magnetic-bead purification. […] The T cells were harvested and surface stained on day 5 for CD3, -4, -25, and -127, followed by fixation and permeabilization (eBioscience), and then intracellular staining for Foxp3 [Liu, W., et al. (2006) J. Exp. Med. 203, 1701-1711; […]., et al. (2006) J. Exp. Med. 203, 1693-1700]. Tregs were characterized by gating on the live cells expressing surface CD3^+, CD4^+, and absence of CD127, followed by expression of Foxp3 and CD25^bright [Liu, W., et al. (2006) J. Exp. Med. 203, 1701-1711; […]., et al. (2006) J. Exp. Med. 203, 1693-1700]. The absolute number of iTregs and Tconv (CD4^+ CD25^-) cells was obtained by timed acquisition. The ratio of iTreg:Tconv was calculated based on the absolute number of each T-cell population.

STAT5 = STAT5 phosphorylation in CD4+ T cells of 5 day allo-MLRs without exogenous cytokine; assay type: cell-based, human; conditions: CAS 285986-31-4 1 μM
Method: as §1

ustekinumab: monoclonal antibody targeting the p40-cytokines
efficacy in refractory GVHD [1]: demonstrated efficacy

CO[C@H]1C[C@@H]2CC[C@@H](C)[C@@](O)(O2)C(=O)C(=O)N2CCCC[C@H]2C(=O)O[C@H]([C@H](C)C[C@@H]2CC[C@@H](O)[C@H](OC)C2)CC(=O)[C@H](C)/C=C(\C)[C@@H](O)[C@@H](OC)C(=O)[C@H](C)C[C@H](C)/C=C/C=C/C=C/1C [rapamycin]
inhibition at 0.01 µg/mL (primed T-cells): 69%

tocilizumab: humanised IL-6 receptor-inhibiting monoclonal antibody
reducing TH17 responses or enhancing Treg development (TH17 responses): insufficient

O=C(N/N=C/c1coc2ccccc2c1=O)c1cccnc1 [CAS 285986-31-4]
concentration achieving maximum allostimulated T-cell growth [2]: 1 µM
STAT3 signaling (STAT3): maintained intact
iTreg Foxp3 demethylation (Foxp3 TSDR): significant reduction
toxic effects by viability staining (T cells): no toxic effects
allostimulated iTreg expansion (iTregs and Tconvs): significantly decreased
iTreg:Tconv ratio compared with DMSO or STAT3 inhibitor (iTregs and Tconvs): significant reduction
ratio of CD4+, pSTAT5Bright to CD4+, pSTAT3+ T cells (STAT5): significantly decreased
CD4+, pSTAT5Bright population (STAT5; 5 day allo-MLR): selectively impaired
overall geometric MFI of CD4+ STAT5 phosphorylation (STAT5; 5 day allo-MLR): did not affect
